Assay results published in US7018807B2, “Method and medium for detecting vancomycin-resistant enterococcus” (priority 1996, dated 2006).

Tests used:
Assay in all cases: MIC for vancomycin
Assay type in all cases: cell-based
[1] = tested on: Enterococcus faecium VRE02; details: VRE02, read-out: MIC (minimum inhibitory concentration for vancomycin)
[2] = tested on: Enterococcus faecium VRE03; details: strain VRE03, read-out: MIC (minimum inhibitory concentration for vancomycin)
[3] = tested on: Enterococcus faecium VRE04; details: strain VRE04, read-out: MIC (minimum inhibitory concentration for vancomycin)
[4] = tested on: Enterococcus faecium VRE05; details: strain VRE05, read-out: MIC (minimum inhibitory concentration for vancomycin)
[5] = tested on: Enterococcus faecium VRE06; details: strain VRE06, read-out: MIC (minimum inhibitory concentration for vancomycin)
[6] = tested on: Enterococcus faecium VRE07; details: strain VRE07, read-out: MIC (minimum inhibitory concentration for vancomycin)

Measured: MIC

CN[C@H](CC(C)C)C(=O)N[C@H]1C(=O)N[C@@H](CC(N)=O)C(=O)N[C@H]2C(=O)N[C@H]3C(=O)N[C@H](C(=O)N[C@H](C(=O)O)c4cc(O)cc(O)c4-c4cc3ccc4O)[C@H](O)c3ccc(c(Cl)c3)Oc3cc2cc(c3O[C@@H]2O[C@H](CO)[C@@H](O)[C@H](O)[C@H]2O[C@H]2C[C@](C)(N)[C@H](O)[C@H](C)O2)Oc2ccc(cc2Cl)[C@H]1O [vancomycin]
> 256 µg/mL: all assays above
